According to US11834434B2, “Substituted 2-heteroaryloxypyridines and salts thereof and their use as herbicidal agents” (Bayer Aktiengesellschaft, priority 2018, dated 2023):

Columns and labels:
Type in all cases: in vivo
[1] = system: Stellaria media (STEME); assay: Post-emergence herbicidal action against Stellaria media; conditions: 1280 g/ha; rated visually after about 3 weeks vs untreated controls; 100% = plants have died, 0% = like control plants
Protocol: (§1) Seeds of mono- and dicotyledonous weed plants were placed in plastic pots in sandy loam soil (doubly sown with in each case one species of mono- or dicotyledonous weed plants per pot), covered with soil and cultivated in a greenhouse under controlled growth conditions. 2 to 3 weeks after sowing, the test plants were treated at the one-leaf stage. The compounds of the invention, formulated in the form of wettable powders (WP) or as emulsion concentrates (EC), were applied onto the green parts of the plants as aqueous suspension or emulsion with addition of 0.5% additive at a water application rate of 600 liters per hectare (converted). After the test plants had been kept in the greenhouse under optimum growth conditions for about 3 weeks, the activity of the preparations was rated visually in comparison to untreated controls. For example, 100% activity=the plants have died, 0% activity=like control plants. Tables B1 to B8 below show the effects of selected compounds of the general formula (I) according to Table 1 on various harmful plants and an application rate corresponding to 1280 g/ha, which were obtained by the experimental procedure mentioned above.

[2] = system: Stellaria media (STEME); assay: Pre-emergence herbicidal action against Stellaria media; conditions: 1280 g/ha; scored visually after about 3 weeks vs untreated controls; 100% = plants have died, 0% = like control plants
From the text: (§2) Seeds of mono- and dicotyledonous weed plants were placed in plastic pots in sandy loam soil (doubly sown with in each case one species of mono- or dicotyledonous weed plants per pot) and covered with soil. The compounds of the invention, formulated in the form of wettable powders (WP) or as emulsion concentrates (EC), were then applied onto the surface of the covering soil as aqueous suspension or emulsion with addition of 0.5% additive at a water application rate of 600 liters per hectare (converted). After the treatment, the pots were placed in a greenhouse and kept under good growth conditions for the test plants. After about 3 weeks, the effect of the preparations was scored visually in comparison with untreated controls as percentages. For example, 100% activity=the plants have died, 0% activity=like control plants. Tables C1 to C8 below show the effects of selected compounds of the general formula (I) according to Table 1 on various harmful plants and an application rate corresponding to 1280 g/ha, which were obtained by the experimental procedure mentioned above.

[3] = system: Setaria viridis (SETVI); assay: Pre-emergence herbicidal action against Setaria viridis; conditions: 1280 g/ha; scored visually after about 3 weeks vs untreated controls; 100% = plants have died, 0% = like control plants
From the text: as §2

[4] = system: Matricaria inodora (MATIN); assay: Pre-emergence herbicidal action against Matricaria inodora; conditions: 1280 g/ha; scored visually after about 3 weeks vs untreated controls; 100% = plants have died, 0% = like control plants
From the text: as §2

[5] = system: Abutilon theophrasti (ABUTH); assay: Pre-emergence herbicidal action against Abutilon theophrasti; conditions: 1280 g/ha; scored visually after about 3 weeks vs untreated controls; 100% = plants have died, 0% = like control plants
From the text: as §2

[6] = system: Abutilon theophrasti (ABUTH); assay: Post-emergence herbicidal action against Abutilon theophrasti; conditions: 1280 g/ha; rated visually after about 3 weeks vs untreated controls; 100% = plants have died, 0% = like control plants
Protocol: as §1

[7] = system: Amaranthus retroflexus (AMARE); assay: Post-emergence herbicidal action against Amaranthus retroflexus; conditions: 1280 g/ha; rated visually after about 3 weeks vs untreated controls; 100% = plants have died, 0% = like control plants
Protocol: as §1

[8] = system: Poa annua (POAAN); assay: Pre-emergence herbicidal action against Poa annua; conditions: 1280 g/ha; scored visually after about 3 weeks vs untreated controls; 100% = plants have died, 0% = like control plants
From the text: as §2

[9] = system: Amaranthus retroflexus (AMARE); assay: Pre-emergence herbicidal action against Amaranthus retroflexus; conditions: 1280 g/ha; scored visually after about 3 weeks vs untreated controls; 100% = plants have died, 0% = like control plants
From the text: as §2

[10] = system: Poa annua (POAAN); assay: Post-emergence herbicidal action against Poa annua; conditions: 1280 g/ha; rated visually after about 3 weeks vs untreated controls; 100% = plants have died, 0% = like control plants
Protocol: as §1

[11] = system: Echinochloa crus-galli (ECHCG); assay: Pre-emergence herbicidal action against Echinochloa crus-galli; conditions: 1280 g/ha; scored visually after about 3 weeks vs untreated controls; 100% = plants have died, 0% = like control plants
From the text: as §2

[12] = system: Lolium rigidum (LOLRI); assay: Pre-emergence herbicidal action against Lolium rigidum; conditions: 1280 g/ha; scored visually after about 3 weeks vs untreated controls; 100% = plants have died, 0% = like control plants
From the text: as §2

[13] = system: Echinochloa crus-galli (ECHCG); assay: Post-emergence herbicidal action against Echinochloa crus-galli; conditions: 1280 g/ha; rated visually after about 3 weeks vs untreated controls; 100% = plants have died, 0% = like control plants
Protocol: as §1

Row | Structure (SMILES) | Post-emergence action against Stellaria media (STEME) [1] [%] | Pre-emergence action against Stellaria media (STEME) [2] [%] | Pre-emergence action against Setaria viridis (SETVI) [3] [%] | Pre-emergence action against Matricaria inodora (MATIN) [4] [%] | Pre-emergence action against Abutilon theophrasti (ABUTH) [5] [%] | Post-emergence action against Abutilon theophrasti (ABUTH) [6] [%] | Post-emergence action against Amaranthus retroflexus (AMARE) [7] [%] | Pre-emergence action against Poa annua (POAAN) [8] [%] | Pre-emergence action against Amaranthus retroflexus (AMARE) [9] [%] | Post-emergence action against Poa annua (POAAN) [10] [%] | Pre-emergence action against Echinochloa crus-galli (ECHCG) [11] [%] | Pre-emergence action against Lolium rigidum (LOLRI) [12] [%] | Post-emergence action against Echinochloa crus-galli (ECHCG) [13] [%]
1 | Cc1cc(C)c(Cc2ccc(Cl)c(F)c2)c(Oc2ncc(F)cn2)n1 [Example I-485] | 100 | 100 | 100 | 100 | 100 | 90 | 100 | 100 | 100 | 90 | 90 | 90 | –
2 | Cc1ccc(Cc2c(C)cc(C)nc2Oc2ncc(F)cn2)cc1 [Example I-486] | 100 | 100 | 100 | – | 100 | 90 | 90 | 100 | 100 | 100 | 100 | 90 | –
3 | COc1c(F)ccc(Cc2c(C)cc(C)nc2Oc2ncc(F)cn2)c1F [Example I-488] | 100 | 100 | 100 | 100 | 100 | 100 | 100 | 100 | 100 | 90 | 100 | 100 | –
4 | Cc1ccc(Oc2ccc(Cl)cc2)c(Oc2ncc(Cl)cn2)n1 [Example I-504] | 100 | 100 | 100 | 90 | 90 | – | 100 | 90 | 100 | 100 | – | 90 | 90
5 | Cc1ccc(Oc2ccccc2)c(Oc2ncc(F)cn2)n1 [Example I-511] | 100 | 100 | 100 | 100 | 100 | 90 | 100 | 100 | 100 | 100 | 100 | 90 | –
6 | Cc1ccc(Oc2ccc(Cl)cc2)c(Oc2ncc(F)cn2)n1 [Example I-515] | 100 | 100 | 100 | 100 | 100 | – | 100 | 100 | 100 | 100 | 100 | 90 | 100
